Measured values reported in patent US20160022708A1, “METHODS AND COMPOSITIONS FOR THE TREATMENT OF GLUTAMINE-ADDICTED CANCERS” (ST. JUDE CHILDREN'S RESEARCH HOSPITAL, priority 2013, published 2016).
Structures can show the parent of a compound that is named as a salt. Where two headings read alike, the source gives them in different places.

Legend:
[1] = tested on: neuroblastoma and Ewing's sarcoma cell lines; test: CyQuant viability assay, panel of NB and Ewing's sarcoma cell lines; format: cell-based; settings: for effectiveness on cancer cell lines: broad ranges of drug concentrations; for efficacy as single agent in vitro: single agents; for single agent effect: more glutamine-addicted cell lines such as IMR32, Kelly, RD-ES and SK-ES-1
Description: To survey the effects of DON on neuroblastomas and Ewing's sarcomas, DON was tested on six neuroblastoma (SK-N-AS, SK-N-BE(2), SK-N-FI, IMR32, Kelly, and SH-SySy) and three Ewing's sarcoma cell lines (SK-N-MC, RD-ES and SK-ES-1) and a control immortalized foreskin fibroblast cell line (BJ). Using the CyQuant viability assay, the respective sensitivities of each cell line to DON were determined after 72 hrs of treatment in a universal media (EMEM, 10% FBS, 0.5 mM glutamine) containing physiological levels of glutamine and glucose. […] More strikingly, all three Ewing's sarcoma cell lines were especially sensitive to DON with an 80% loss in cell viability (FIG. 1B). […]
(§1) 6-diazo-5-oxo-L-norleucine (Sigma Aldrich, St. Louis, Mo.) and epigallocatechin-3-gallate (Sigma Aldrich, St. Louis, Mo.) were solubilized in water, aminooxyacetate (Sigma Aldrich, St. Louis, Mo.), obatoclax mesylate (Selleckchem,), and ABT-263 (Sellekchem) were dissolved in 100% dimethyl sulfoxide (DMSO). In a 96-well tissue culture plate, 5×10^4 cells were plated in 100 ul of media containing EMEM, 10% FBS and 0.5 mM glutamine per well. Four hours after plating drugs were diluted to a 2× concentration in plating media and added to wells. Plates were incubated for 72-hrs and then submitted to CyQuant Cell Direct Proliferation Assay (Life Technologies) according to manufacturer's instructions and read with a Synergy HT Multi-mode microplate reader (Biotek).

BJ foreskin fibroblasts = test: CyQuant viability assay, control cell line; format: cell-based
Description: (§2) To survey the effects of DON on neuroblastomas and Ewing's sarcomas, DON was tested on six neuroblastoma (SK-N-AS, SK-N-BE(2), SK-N-FI, IMR32, Kelly, and SH-SySy) and three Ewing's sarcoma cell lines (SK-N-MC, RD-ES and SK-ES-1) and a control immortalized foreskin fibroblast cell line (BJ). Using the CyQuant viability assay, the respective sensitivities of each cell line to DON were determined after 72 hrs of treatment in a universal media (EMEM, 10% FBS, 0.5 mM glutamine) containing physiological levels of glutamine and glucose. […] More strikingly, all three Ewing's sarcoma cell lines were especially sensitive to DON with an 80% loss in cell viability (FIG. 1B).
as §1

[2] = cited from earlier work
SK-ES-1 tumors = test: Subcutaneous tumor growth; format: in vivo, mice; settings: 100 mg/kg twice a week I.P.
Description: (§3) DON's effects on NB and EWS tumors in vivo were assessed. Subcutaneous tumors for the neuroblastoma cell lines SK-N-AS and SK-N-BE(2) as well as the Ewing's Sarcoma cell lines SK-N-MC and SK-ES-1 were grown to at least 200 mm^3 and were then randomized into either DON or control treatment groups. Mice were then treated with 100 mg/kg of DON or water control twice a week by intraperitoneal (I.P.) injection, equivalent to a twice a week dose of 300 mg/m^2 in children. Previous work has shown that a dose as high as 520 mg/m^2 was safely achievable in children. […] To attempt to extend the course of treatment, mice either were treated with half the dose at 50 mg/kg twice a week or with a once weekly injection of 100 mg/kg (1×/wk). The effectiveness of the original drug regimen was compared to the two new treatment schedules using mice with subcutaneous tumors from the most DON-resistant (SK-N-FI) and the most DON-sensitive (SK-N-MC) cell line in vitro. This experiment would allow for the determination whether the in vitro data was predictive of differences in response to DON in vivo. Both of the new drug regimens allowed a significant extension in length of treatment from 11 days to greater than 24 days. However, only the 50 mg/kg dose was effective against both tumor types. […] In addition, the SK-N-BE2 and IMR32 neuroblastoma cell lines were tested at the 50 mg/kg dose in mice with subcutaneous tumors. The 50 mg/kg dose was effective against both tumor types (FIG. 7 A-C).
(§4) For subcutaneous tumor experiments, cells were injected into the hind flank of either 6-8 week old athymic (nu/nu) mice (Charles River) or into Rag2^−/−; gamma c^−/− mice (kindly provided by Dr. Shannon McKinney-Freeman). No difference in tumor growth kinetics was observed between different strains. SK-N-AS, SK-N-MC, and SK-ES-1 cells were injected at 2×10^6 cells per mouse in 100 μl total volume. SK-N-BE(2) cells were injected in a 1:1 mix of cells and Matrigel (BD Biosciences) at a final concentration of 2×10^6 cells per mouse. Tumor size was measured by digital caliper, and tumor volume was calculated using the formula 1/2*(length*width^2). When tumors reached an average size of 200 mm^3 mice were randomized into treatment groups. On the day of treatment, mice were weighed then given an intraperitoneal (i.p.) injection of either 100 mg/kg DON, 50 mg/kg or water control. All animal experiments were performed in accordance with the guidelines established by IACUC.

SK-N-BE(2) tumors [3] = test: Subcutaneous tumor growth; format: in vivo, mice
Description: as §3, §4

SK-N-FI tumors = test: Subcutaneous tumor growth; format: in vivo, mice; settings: 50 mg/kg twice a week I.P.
Description: as §3, §4

IMR32 tumors = test: Subcutaneous tumor growth; format: in vivo, mice; settings: 50 mg/kg twice weekly I.P.
Description: as §3, §4

SK-N-MC tumors = test: Subcutaneous tumor growth; format: in vivo, mice
Description: as §3, §4

SK-N-AS tumors [4] = test: Subcutaneous tumor growth; format: in vivo, mice; settings: 100 mg/kg twice a week I.P.
Description: as §3, §4

SK-N-FI cells = test: CyQuant viability assay; format: cell-based; settings: DON 72 hrs; EMEM, 10% FBS, 0.5 mM glutamine
Description: as §2
as §1, with “Four hours after plating drugs were diluted to a 2× concentration in plating media and added to wells.” left out

SK-N-BE(2) cells [5] = test: Cell cycle analysis by BrdU labeling (FACS); format: cell-based; settings: 100 μM DON 72 hrs
Description: (§5) To investigate the effects of DON on proliferation and cell death in vivo, additional NB tumor studies using SK-N-AS and SK-N-BE(2) cells were set up. Tumors in each cohort were allowed to grow to ˜1000 mm^3 before they underwent one round of DON treatment at 100 mg/kg of DON twice a week. On day 4, the second dose of DON was given 6-hrs prior and BrdU injected 2 hours prior to harvesting the tumors for histology (FIG. 3A).
(§6) In vitro cell cultures were pulse-labeled with 10 μM BrdU (BD Biosciences) for 90 minutes at 37° C., and then fixed and stained with Anti-BrdU-FITC antibody and 7-AAD (BD Biosciences, #559619), according to manufacturer's protocol. Stained samples were then analyzed by the Flow Cytometry and Cell Sorting Shared Resource facility at St. Jude Children's Research Hospital.

SK-N-AS cells [6] = test: Cell cycle analysis by BrdU labeling (FACS); format: cell-based; settings: 100 μM DON 72 hrs
Description: as §5, §6

[7] = children, previous work; cited from earlier work
[8] = tested on: Ewing's sarcoma cell lines (SK-N-MC, RD-ES and SK-ES-1); test: CyQuant viability assay, Ewing's sarcoma cell lines; format: cell-based; settings: all three Ewing's sarcoma cell lines; DON 72 hrs
Description: as §2
as §1, with “Four hours after plating drugs were diluted to a 2× concentration in plating media and added to wells.” left out

SK-N-BE(2) tumors [9] = test: IHC of BrdU and cleaved caspase-3 in tumors; format: in vivo, mice; settings: ~1000 mm^3 tumors, 100 mg/kg DON day 1 and day 4
Description: as §5
(§7) For in vivo labeling of proliferating cells, mice with subcutaneous SK-N-AS or SK-N-BE(2) tumors (1000 mm^3) were treated with DON and injected with BrdU (BD Biosciences). Mice were given an intraperitoneal (i.p.) injection of 100 mg/kg DON on day 1 and again on day 4. Four hours after the second dose of DON, mice were injected i.p. with 150 μl of 10 mg/ml BrdU. Tumor tissue was harvested 2 hours after addition of BrdU and samples were fixed in 10% formalin. Paraffin-embedded tissue sections were then stained for BrdU incorporation by the St. Jude Veterinary Pathology Core.

SK-N-AS tumors [10] = test: IHC of BrdU and cleaved caspase-3 in tumors; format: in vivo, mice; settings: ~1000 mm^3 tumors, 100 mg/kg DON day 1 and day 4
Description: as §5, §7

SK-N-BE(2) cells [11] = test: Annexin / propidium iodide staining (FACS); format: cell-based; settings: 100 μM DON 72 hrs
Description: as §5
(§8) To measure early apoptosis, cells were plated in EMEM media containing 0.5 mM L-glutamine, 10% FBS, and 1% Penicillin/Streptomycin, then treated+/−100 μM DON for 72 hours. Both adherent and floating cells in the media were collected at harvest, and 3×10^5 cells were then stained with Annexin-V-FITC antibody for 15 minutes at room temperature. Cells were then counterstained with propidium iodide (9.1 μM final concentration) and filtered through a 40 μm nylon mesh. Immediately after staining, samples were analyzed by the Flow Cytometry and Cell Sorting Shared Resource facility at St. Jude Children's Research Hospital.

SK-N-AS cells [12] = test: Annexin / propidium iodide staining (FACS); format: cell-based; settings: 100 μM DON 72 hrs
Description: as §5, §8

[13] = Tolerability in tumor-bearing mice (weight loss, length of treatment); format: in vivo
Description: as §3
For subcutaneous tumor experiments, cells were injected into the hind flank of either 6-8 week old athymic (nu/nu) mice (Charles River) or into Rag2^−/−; gamma c^−/− mice (kindly provided by Dr. Shannon McKinney-Freeman). No difference in tumor growth kinetics was observed between different strains. SK-N-AS, SK-N-MC, and SK-ES-1 cells were injected at 2×10^6 cells per mouse in 100 μl total volume. […] Tumor size was measured by digital caliper, and tumor volume was calculated using the formula 1/2*(length*width^2). […]

[14] = in vivo; cited from earlier work

CC1(C)CCC(c2ccc(Cl)cc2)=C(CN2CCN(c3ccc(C(=O)NS(=O)(=O)c4ccc(N[C@H](CCN5CCOCC5)CSc5ccccc5)c(S(=O)(=O)C(F)(F)F)c4)cc3)CC2)C1 [ABT-263, navitoclax]
effectiveness on cancer cell lines [1]: effective on all the cancer cell lines tested | efficacy as single agent in vitro [1]: some efficacy | toxicity to BJ cells (BJ foreskin fibroblasts): non-toxic | oral bioavailability ([2]; in vivo, po): orally bioavailable | major adverse side effect ([2]; in vivo): thrombocytopenia | safety and tolerability ([2]; in vivo): safe and well-tolerated | tolerability ([2]; phase I and phase II clinical trials in adults): well tolerated

NOCC(=O)O [AOA, aminooxyacetate]
single agent effect [1]: effective as single agents

[N-]=[N+]=CC(=O)CC[C@H](N)C(=O)O [DON, 6-diazo-5-oxo-L-norleucine]
sensitivity to DON ([1]; all cell lines except control BJ, 72 hrs): some sensitivity | effectiveness on cancer cell lines [1]: effective on all the cancer cell lines tested | loss in cell numbers ([1]; multiple cell lines, DON 72 hrs, 0.5 mM glutamine): greater than 60% | efficacy as single agent in vitro [1]: some efficacy | tumor growth (SK-ES-1 tumors): dramatically blocked growth | tumor growth (SK-N-BE(2) tumors [3]; 50 mg/kg twice weekly I.P.): effective | tumor growth (SK-N-BE(2) tumors [3]; 100 mg/kg twice a week I.P.): greatly reduced growth | tumor growth (SK-N-FI tumors): effective | tumor growth (IMR32 tumors): effective | tumor growth (SK-N-MC tumors; 50 mg/kg twice a week I.P.): effective | tumor growth (SK-N-MC tumors; 100 mg/kg twice a week I.P.): dramatically blocked growth | tumor growth (SK-N-AS tumors [4]): greatly reduced growth | reduction in cell numbers (SK-N-FI cells): 20% | toxicity to BJ cells (BJ foreskin fibroblasts; broad ranges of drug concentrations): non-toxic | entry into the S-phase of the cell cycle (SK-N-BE(2) cells [5]): reduced entry into the S-phase | entry into the S-phase of the cell cycle (SK-N-AS cells [6]): reduced entry into the S-phase | dose safely achievable [7]: ≤ 520 mg/m^2 | loss in cell viability [8]: 80% | increase in caspase-3 cleavage (SK-N-BE(2) tumors [9]): greater than 2 fold | reduction in BrdU incorporation (SK-N-BE(2) tumors [9]): > 90% | caspase-3 cleavage (SK-N-AS tumors [10]): no difference | reduction in BrdU incorporation (SK-N-AS tumors [10]): > 90% | cell death (SK-N-BE(2) cells [11]): increase in cell death | cell death (SK-N-AS cells [12]): increase in cell death | length of treatment ([13]; 50 mg/kg twice a week or 100 mg/kg once weekly): greater than 24 days | weight loss in the mice ([13]; 100 mg/kg twice a week I.P.): caused weight loss | length of treatment ([13]; original regimen 100 mg/kg twice a week): 11 days

CC1=C(/C=C/C(C)=C/C=C/C(C)=C/C(=O)Nc2ccc(O)cc2)C(C)(C)CCC1 [fenretinide, N-(4-hydroxyphenyl)retinamide]
effectiveness on cancer cell lines [1]: effective on all the cancer cell lines tested | toxicity to BJ cells (BJ foreskin fibroblasts): non-toxic | bioavailability [14]: poor bioavailability

COC1=CC(c2cc3ccccc3[nH]2)=N/C1=C\c1[nH]c(C)cc1C [obatoclax mesylate]
efficacy as single agent in vitro [1]: some efficacy

epigallocatechin-3-gallate [EGCG]
single agent effect [1]: effective as single agents
